Source: the supplement of paper PMC11208160

assay: recombinant UMI read abundance after kanamycin selection (control-corrected) (log10(CPM+1)); higher = more efficient recombination; extreme values may be limits of the assay; sequences stand for … in AGTGCAGAGAAAATCGGCCAGTTTTCTCTGCCTGCAGTCCGCATGCCGTGGGACCCCTTGGGTTCTAACCTGTTGCCTAGATTTATGCAGCGGACTGCCTTTCTCCCAAAGTGATAAACCGG…AGGTTGGTTTCACT; site = the 11-nt donor
In short: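 Counts of recombinant UMIs were reported as log10(CPM+1). Before that, they were converted to CPM, averaged over replicates and scaled using control-derived factors. They came from PCR across the donor–target junction after Escherichia coli carrying the pair library and target plasmid was plated on IPTG (0.07 mM) plus kanamycin, or unselected, in two replicates each.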
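Also: IS621 bridge recombinase in Escherichia coli cells against a fixed T5 target plasmid.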

Point of comparison: “TGGCTCCCATGGACCGGTTTTCCCGGTAATCCGTATTTGGT (site TGGCTCCCTAC)”, “recombinant UMI read abundance (log10)” value 0.203. Against it:
- CGGCTTTCATGGACCGGTTTTCCCGGTAATCCGTATTTGGC (site CGGCTTTCTGC) — higher, 0.438
- TCGAAAACATGGACCGGTTTTCCCGGTAATCCGTATTTGCT (site CCGAAAACTAG) — higher, 0.679
- ACAGTATCATGGACCGGTTTTCCCGGTAATCCGTATTTGGA (site ACAGTATCTTC) — higher, 2.88
- TTTGCGGCATGGACCGGTTTTCCCGGTAATCCGTATTTGCT (site TTTGTGGCTAG) — within 0.2 log units, 0.00957
- TACTTGACATGGACCGGTTTTCCCGGTAATCCGTATTTGCT (site TACTCGACTAG) — within 0.2 log units, 0.277
- CTGCTAACATGGACCGGTTTTCCCGGTAATCCGTATTTGCT (site CTGCTATCTAG) — higher, 0.474
- TAAGCCACATGGACCGGTTTTCCCGGTAATCCGTATTTGAC (site TAAGCCACTGT) — higher, 2.78
- AGGAAGTCATGGACCGGTTTTCCCGGTAATCCGTATTTGCA (site AGGAAGTCTTG) — higher, 3.29
- CAATTCCCATGGACCGGTTTTCCCGGTAATCCGTATTTGCT (site CACTTCCCTAG) — within 0.2 log units, 0.171
- TGGCCGGCATGGACCGGTTTTCCCGGTAATCCGTATTTGGG (site TGGCCGGCTCC) — within 0.2 log units, 0.059
- TTATACTCATGGACCGGTTTTCCCGGTAATCCGTATTTGCA (site TGATACTCTTG) — higher, 2.05
- GTATCTCCATGGACCGGTTTTCCCGGTAATCCGTATTTGTA (site GTATCTCCTTA) — higher, 0.705
- GTCTGCACATGGACCGGTTTTCCCGGTAATCCGTATTTGTA (site GTTTGCACTTA) — within 0.2 log units, 0.0829
- TGTTTGGCATGGACCGGTTTTCCCGGTAATCCGTATTTGCT (site CGTTTGGCTAG) — within 0.2 log units, 0.00328
- GCCAGGCCATGGACCGGTTTTCCCGGTAATCCGTATTTGTA (site GCCAAGCCTTA) — within 0.2 log units, 0.198
- ACACATCCATGGACCGGTTTTCCCGGTAATCCGTATTTGTC (site ACACATCCTGA) — higher, 1.53
- CGATGGACATGGACCGGTTTTCCCGGTAATCCGTATTTGTT (site CGATAGACTAA) — higher, 1.25
- GTTCATGCATGGACCGGTTTTCCCGGTAATCCGTATTTGGT (site GTTCATGCTAC) — higher, 0.717
- CAGTTCCCATGGACCGGTTTTCCCGGTAATCCGTATTTGCT (site CATTTCCCTAG) — higher, 0.433
- CACGGCCCATGGACCGGTTTTCCCGGTAATCCGTATTTGTT (site CACTGCCCTAA) — within 0.2 log units, 0.0132
- GCTACAGCATGGACCGGTTTTCCCGGTAATCCGTATTTGCC (site GCTACGGCTGG) — higher, 0.477
- CCTCATACATGGACCGGTTTTCCCGGTAATCCGTATTTGGC (site CCTAATACTGC) — lower, 0
- ACGCACGCATGGACCGGTTTTCCCGGTAATCCGTATTTGGG (site ATGCACGCTCC) — within 0.2 log units, 0.12
- AACCTTCCATGGACCGGTTTTCCCGGTAATCCGTATTTGAT (site AACCTTCCTAT) — lower, 0
- ACATAGACATGGACCGGTTTTCCCGGTAATCCGTATTTGGG (site ACGTAGACTCC) — within 0.2 log units, 0.00831
- TTATGCACATGGACCGGTTTTCCCGGTAATCCGTATTTGGC (site TTATGCACTGC) — higher, 1.93
- GGAAACTCATGGACCGGTTTTCCCGGTAATCCGTATTTGTC (site GGAAACTCTGA) — higher, 2.42
- GTGGCTGCATGGACCGGTTTTCCCGGTAATCCGTATTTGAT (site GTGGCTGCTAT) — higher, 2.18
- GGCAATCCATGGACCGGTTTTCCCGGTAATCCGTATTTGTA (site GGCAATCCTTC) — within 0.2 log units, 0.00948
- TGCTCCACATGGACCGGTTTTCCCGGTAATCCGTATTTGGA (site TGCTCCACTTC) — lower, 0
- CGCCCTCCATGGACCGGTTTTCCCGGTAATCCGTATTTGTT (site CGCCCTCCTAA) — higher, 1.24
- CGTTCGACATGGACCGGTTTTCCCGGTAATCCGTATTTGTT (site CGCTCGACTAA) — within 0.2 log units, 0.0144
- ATCTATACATGGACCGGTTTTCCCGGTAATCCGTATTTGAA (site ATCTATACTAT) — within 0.2 log units, 0.0589
- CGTGGACCATGGACCGGTTTTCCCGGTAATCCGTATTTGGG (site CGAGGACCTCC) — within 0.2 log units, 0.0168
- CACGCGTCATGGACCGGTTTTCCCGGTAATCCGTATTTGGG (site CACGCGTCTCC) — higher, 1.04
- ATCCAAGCATGGACCGGTTTTCCCGGTAATCCGTATTTGAG (site ATCCAAGCTAT) — higher, 1.64
